Like-named read-outs stand apart in the source and are kept apart here.

In assay [1] the target is biotinylated human Gal-3 (hGal-3) (Homo sapiens, UniProt P17931). As to the kind of experiment: Competitive binding assay: biotinylated hGal-3 binding to microplate-adsorbed asialofetuin (ASF), spectrophotometric. How it is done:
If not explicitly mentioned otherwise, the inhibition data refer to the binding of biotinylated human Gal-3 (hGal-3).
(§1) Biological Assay Evaluation of Compound Inhibitory Activity (IC50)
The inhibitory activity of compounds is determined in competitive binding assays.
Briefly, compounds are serially diluted in DMSO (working dilutions).
(§2) Plates are incubated for 3 hours at 4° C., then washed with cold assay buffer (3×50 uL), incubated for 1 hour with 25 μL/well of a streptavidin-peroxidase solution (diluted in assay buffer to 80 ng/mL) at 4° C., followed by further washing steps with assay buffer (3×50 uL). Finally, 25 μL/well of ABTS substrate is added.
(§3) The calculated IC50 values may fluctuate depending on the daily assay performance. Fluctuations of this kind are known to those skilled in the art. IC50 values from several measurements are given as mean values.

Assay [2] has as its target human Gal-1 (hGal-1) (Homo sapiens, UniProt P09382). As to the kind of experiment: Competitive binding assay: biotinylated hGal-1 binding to microplate-adsorbed asialofetuin (ASF), spectrophotometric. Conditions: hGal-1 binding to asialofetuin; Table 15; R and S epimers of selected Examples also listed; read-out: IC50 (Galectin-1 inhibition). Here is the method:
as §1
The inhibitory activity of compounds is determined in competitive binding assays. This spectrophotometric assay measures the binding of biotinylated human Gal-3 (hGal-3) or human Gal-1 (hGal-1), respectively, to a microplate-adsorbed glycoprotein, asialofetuin (ASF) (Proc Natl Acad Sci USA. 2013 Mar. 26; 110(13):5052-7.).
Briefly, compounds are serially diluted in DMSO (working dilutions). ASF-coated 384well plates are supplemented with 22.8 μL/well of biotinylated hGal-3 or hGal-1 in assay buffer (i.e. 300-1000 ng/mL biotinylated hGal-3 or hGal-1) to which 1.2 μL of compound working dilutions are added and mixed.
as §2, §3

Where [3] appears, read: Table 6, hGal-3, read-out: IC50 (Gal-3 inhibition).
The mark [4] stands for this setting: Gal-3 inhibition, Table 4, read-out: IC50.
Setting [5] is: Table 12, hGal-3, read-out: IC50 (Gal-3 inhibition).
Where [6] appears, read: Gal-3 inhibition, Table 7, read-out: IC50.
The mark [7] stands for this setting: Table 11, hGal-3, read-out: IC50 (Gal-3 inhibition).

Sequence of human Gal-1 (hGal-1) (P09382 whole entry): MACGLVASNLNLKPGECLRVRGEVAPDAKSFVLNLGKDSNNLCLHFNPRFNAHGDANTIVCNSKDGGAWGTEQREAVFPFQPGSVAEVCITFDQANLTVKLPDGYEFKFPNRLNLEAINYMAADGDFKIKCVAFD
Sequence of biotinylated human Gal-3 (hGal-3) (P17931 whole entry): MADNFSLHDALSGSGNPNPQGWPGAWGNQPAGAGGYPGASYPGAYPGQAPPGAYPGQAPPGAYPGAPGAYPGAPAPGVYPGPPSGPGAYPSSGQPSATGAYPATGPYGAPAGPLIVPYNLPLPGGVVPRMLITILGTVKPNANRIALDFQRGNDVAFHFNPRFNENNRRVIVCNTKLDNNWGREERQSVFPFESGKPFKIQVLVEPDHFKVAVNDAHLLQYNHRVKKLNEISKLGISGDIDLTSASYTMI

Turning to `CCN(C)C(=O)[C@H](S[C@@H]1O[C@H](CO)[C@H](O)[C@H](n2cc(-c3cc(F)c(F)c(F)c3)nn2)[C@H]1O)C(C)(C)O` [Example 2.31.203R., (R)-2-(((2S,3R,4S,5R,6R)-3,5-Dihydroxy-6-(hydroxymethyl)-4-(4-(3,4,5-trifluorophenyl)-1H-1,2,3-triazol-1-yl)tetrahydro-2H-pyran-2-yl)thio)-N-ethyl-3-hydroxy-N,3-dimethylbutanamide], the IC50 in assay [1] (Gal-3 inhibition, Table 3, read-out: IC50) came out at 3880 nM.
With `CC1CN(C(=O)[C@@H](S[C@@H]2O[C@H](CO)[C@H](O)[C@H](n3cc(-c4cc(F)c(F)c(F)c4)nn3)[C@H]2O)C(C)(C)O)C1` [Example 2.31.205S., (S)-2-(((2S,3R,4S,5R,6R)-3,5-dihydroxy-6-(hydroxymethyl)-4-(4-(3,4,5-trifluorophenyl)-1H-1,2,3-triazol-1-yl)tetrahydro-2H-pyran-2-yl)thio)-3-hydroxy-3-methyl-1-(3-methylazetidin-1-yl)butan-1-one], the half-inhibitory concentration (IC50) in assay [2] came out at 820 nM.
Same read-out and setting: to `CC(C)(O)[C@@H](S[C@@H]1O[C@H](CO)[C@H](O)[C@H](n2cc(-c3cc(F)c(F)c(F)c3)nn2)[C@H]1O)C(=O)N1CCCC1` [Example 2.31.211R, (R)-2-(((2S,3R,4S,5R,6R)-3,5-Dihydroxy-6-(hydroxymethyl)-4-(4-(3,4,5-trifluorophenyl)-1H-1,2,3-triazol-1-yl)tetrahydro-2H-pyran-2-yl)thio)-3-hydroxy-3-methyl-1-(pyrrolidin-1-yl)butan-1-one] belongs 2150 nM.
For the compound `CC(C)(O)[C@@H](S[C@@H]1O[C@H](CO)[C@H](O)[C@H](n2cc(-c3cc(F)c(F)c(F)c3)nn2)[C@H]1O)C(=O)N1CCCC1` [Example 2.31.211R., (R)-2-(((2S,3R,4S,5R,6R)-3,5-Dihydroxy-6-(hydroxymethyl)-4-(4-(3,4,5-trifluorophenyl)-1H-1,2,3-triazol-1-yl)tetrahydro-2H-pyran-2-yl)thio)-3-hydroxy-3-methyl-1-(pyrrolidin-1-yl)butan-1-one], the IC50 in assay [1] (setting [3]) turned out to be 310 nM.
On the same count and under the same terms, to `CC(C)(O)[C@H](S[C@@H]1O[C@H](CO)[C@H](O)[C@H](n2cc(-c3cc(F)c(F)c(F)c3)nn2)[C@H]1O)C(=O)N1CCCC1` [Example 2.31.211S, (S)-2-(((2S,3R,4S,5R,6R)-3,5-Dihydroxy-6-(hydroxymethyl)-4-(4-(3,4,5-trifluorophenyl)-1H-1,2,3-triazol-1-yl)tetrahydro-2H-pyran-2-yl)thio)-3-hydroxy-3-methyl-1-(pyrrolidin-1-yl)butan-1-one] belongs 80 nM.
`CC(C)(O)[C@H](S[C@@H]1O[C@H](CO)[C@H](O)[C@H](n2cc(-c3cc(F)c(F)c(F)c3)nn2)[C@H]1O)C(=O)N1CCCC1` [Example 2.31.211S., (S)-2-(((2S,3R,4S,5R,6R)-3,5-Dihydroxy-6-(hydroxymethyl)-4-(4-(3,4,5-trifluorophenyl)-1H-1,2,3-triazol-1-yl)tetrahydro-2H-pyran-2-yl)thio)-3-hydroxy-3-methyl-1-(pyrrolidin-1-yl)butan-1-one]: the IC50 in assay [2] came to 530 nM.
For the compound `O=C([C@H](S[C@@H]1O[C@H](CO)[C@H](O)[C@H](n2cc(-c3cc(F)c(F)c(F)c3)nn2)[C@H]1O)C1(O)CCOCC1)N1CCc2ccccc21` [Example 2.41.209R., (R)-2-(((2S,3R,4S,5R,6R)-3,5-Dihydroxy-6-(hydroxymethyl)-4-(4-(3,4,5-trifluorophenyl)-1H-1,2,3-triazol-1-yl)tetrahydro-2H-pyran-2-yl)thio)-2-(4-hydroxytetrahydro-2H-pyran-4-yl)-1-(indolin-1-yl)ethan-1-one], the IC50 in assay [1] (setting [4]) is 1310 nM.
Consider `CN(CCC1CCOCC1)C(=O)[C@H](S[C@@H]1O[C@H](CO)[C@H](O)[C@H](n2cc(-c3cc(F)c(F)c(F)c3)nn2)[C@H]1O)C1(O)CCOCC1` [Example 2.41.216R., (R)-2-(((2S,3R,4S,5R,6R)-3,5-Dihydroxy-6-(hydroxymethyl)-4-(4-(3,4,5-trifluorophenyl)-1H-1,2,3-triazol-1-yl)tetrahydro-2H-pyran-2-yl)thio)-2-(4-hydroxytetrahydro-2H-pyran-4-yl)-N-methyl-N-(2-(tetrahydro-2H-pyran-4-yl)ethyl)acetamide], for which the IC50 in assay [1] (setting [4]) came to 1530 nM.
For `CO[C@@H]1[C@@H](n2cc(-c3cc(F)c(F)c(F)c3)nn2)[C@@H](O)[C@@H](CO)O[C@H]1SC(C(=O)N(C)C1CC(F)(F)C1)C1(O)CCC(F)(F)CC1` (stereo partly drawn) [Example 2.44.237.I., 2-(4,4-Difluoro-1-hydroxycyclohexyl)-N-(3,3-difluorocyclobutyl)-2-(((2S,3R,4S,5R,6R)-5-hydroxy-6-(hydroxymethyl)-3-methoxy-4-(4-(3,4,5-trifluorophenyl)-1H-1,2,3-triazol-1-yl)tetrahydro-2H-pyran-2-yl)thio)-N-methylacetamide], the IC50 in assay [1] (setting [5]) came to 90 nM.
As to `CCN(C(=O)C(S[C@@H]1O[C@H](CO)[C@H](O)[C@H](n2cc(-c3cc(F)c(F)c(F)c3)nn2)[C@H]1OC)C1(O)CCC(F)(F)CC1)C1CC1` (stereo partly drawn) [Example 2.44.238.I.], the IC50 in assay [1] (Table 10, hGal-3, read-out: IC50 (Gal-3 inhibition)) was found to be 40 nM.
Consider `CO[C@@H]1[C@@H](n2cc(-c3cc(F)c(F)c(F)c3)nn2)[C@@H](O)[C@@H](CO)O[C@H]1SC(C(=O)NC1CCC(C)(C)CC1)C1(O)CCC(F)(F)CC1` (stereo partly drawn) [Example 2.44.255.I, 2-(4,4-Difluoro-1-hydroxycyclohexyl)-N-(4,4-dimethylcyclohexyl)-2-(((2S,3R,4S,5R,6R)-5-hydroxy-6-(hydroxymethyl)-3-methoxy-4-(4-(3,4,5-trifluorophenyl)-1H-1,2,3-triazol-1-yl)tetrahydro-2H-pyran-2-yl)thio)acetamide], for which, in assay [1] (setting [5]), the IC50 turned out to be 390 nM.
In the case of `CO[C@@H]1[C@@H](n2cc(-c3cc(F)c(F)c(F)c3)nn2)[C@@H](O)[C@@H](CO)O[C@H]1SC(C(=O)NC1CCC(C)(C)CC1)C1(O)CCC(F)(F)CC1` (stereo partly drawn) [Example 2.44.255.I., 2-(4,4-Difluoro-1-hydroxycyclohexyl)-N-(4,4-dimethylcyclohexyl)-2-(((2S,3R,4S,5R,6R)-5-hydroxy-6-(hydroxymethyl)-3-methoxy-4-(4-(3,4,5-trifluorophenyl)-1H-1,2,3-triazol-1-yl)tetrahydro-2H-pyran-2-yl)thio)acetamide], the IC50 in assay [2] came out at 830 nM.
Regarding `CCC(O)C(S[C@@H]1O[C@H](CO)[C@H](O)[C@H](n2cc(-c3cc(F)c(F)c(F)c3)nn2)[C@H]1O)C(=O)N(C)CC1CC1` (stereo partly drawn) [Example 2.60.218., N-(Cyclopropylmethyl)-2-(((2S,3R,4S,5R,6R)-3,5-dihydroxy-6-(hydroxymethyl)-4-(4-(3,4,5-trifluorophenyl)-1H-1,2,3-triazol-1-yl)tetrahydro-2H-pyran-2-yl)thio)-3-hydroxy-N-methylpentanamide], the IC50 in assay [1] (setting [6]) was found to be 120 nM.
Turning to `CCC(O)C(S[C@@H]1O[C@H](CO)[C@H](O)[C@H](n2cc(-c3cc(F)c(F)c(F)c3)nn2)[C@H]1O)C(=O)N(C)CC1CC1` (stereo partly drawn) [Example 2.60.218], the IC50 in assay [2] came to 200 nM.
On to `CCN(C)C(=O)C(S[C@@H]1O[C@H](CO)[C@H](O)[C@H](n2cc(-c3cc(F)c(F)c(F)c3)nn2)[C@H]1O)C(O)Cc1ccccc1` (stereo partly drawn) [Example 2.64.203., 2-(((2S,3R,4S,5R,6R)-3,5-Dihydroxy-6-(hydroxymethyl)-4-(4-(3,4,5-trifluorophenyl)-1H-1,2,3-triazol-1-yl)tetrahydro-2H-pyran-2-yl)thio)-N-ethyl-3-hydroxy-N-methyl-4-phenylbutanamide], for which the IC50 in assay [1] (setting [6]) was 220 nM.
As to `Cc1cc(-c2cn([C@H]3[C@@H](O)[C@@H](CO)O[C@@H](S[C@@H](C(=O)N(C)C4CC4)C4(O)CCC(F)(F)CC4)[C@@H]3O)nn2)cnc1F` [Example 21.44.221R, (R)-N-Cyclopropyl-2-(4,4-difluoro-1-hydroxycyclohexyl)-2-(((2S,3R,4S,5R,6R)-4-(4-(6-fluoro-5-methylpyridin-3-yl)-1H-1,2,3-triazol-1-yl)-3,5-dihydroxy-6-(hydroxymethyl)tetrahydro-2H-pyran-2-yl)thio)-N-methylacetamide], in assay [1] (setting [7]), the IC50 stood at 230 nM.
Same read-out and setting: to `Cc1cc(-c2cn([C@H]3[C@@H](O)[C@@H](CO)O[C@@H](S[C@H](C(=O)N(C)C4CC4)C4(O)CCC(F)(F)CC4)[C@@H]3O)nn2)cnc1F` [Example 21.44.221S, (S)-N-Cyclopropyl-2-(4,4-difluoro-1-hydroxycyclohexyl)-2-(((2S,3R,4S,5R,6R)-4-(4-(6-fluoro-5-methylpyridin-3-yl)-1H-1,2,3-triazol-1-yl)-3,5-dihydroxy-6-(hydroxymethyl)tetrahydro-2H-pyran-2-yl)thio)-N-methylacetamide] belongs 50 nM.
Turning to “(R)-2-(4,4-Difluoro-1-hydroxycyclohexyl)-2-(((2S,3R,4S,5R,6R)-3,5-dihydroxy-6-(hydroxymethyl)-4-(4-(3,4,5-trifluorophenyl)-1H-1,2,3-triazol-1-yl)tetrahydro-2H-pyran-2-yl)thio)-1-(piperidin-1-yl)ethan-1-one [Example 2.44.208R.]”, the IC50 in assay [1] (Gal-3 inhibition, Table 5, read-out: IC50) was 3360 nM.

As usually defined, the IC50 is the point on the concentration scale where inhibition reaches its midpoint.
